Laboratory results as given in the NIST ThermoML archive (doi:10.1021/je900609f).
± gives the expanded uncertainty stated by the source.

Details: Crystal; visual observation

Normal melting temperature: 182 ± 0.7 °C
SMILES: C=CC(=O)Nc1cc(F)c(Br)c(F)c1 [N-(4-bromo-3,5-difluorophenyl)acrylamide]
